Assay results from patent publication US20240228482A1, “COMPOUNDS, COMPOSITIONS AND METHODS OF TREATING CANCER” (HOTSPOT THERAPEUTICS, INC., priority 2021, published 2024).

target: T1, CBL-B (Homo sapiens, UniProt Q13191); experiment: CBL-B TR-FRET IC50 screening (E1/E2 ubiquitination, Biotin-Ubiquitin, Anti GST-Tb donor / Streptavidin-d2 acceptor); type: biochemical; details: second part of Table 2 (head 'Patent Cmpd No / Updated Activity'); same CBL-B TR-FRET IC50 bins A-F; read-out: Updated Activity
T1 construct: GST
T1 sequence (Q13191 whole entry): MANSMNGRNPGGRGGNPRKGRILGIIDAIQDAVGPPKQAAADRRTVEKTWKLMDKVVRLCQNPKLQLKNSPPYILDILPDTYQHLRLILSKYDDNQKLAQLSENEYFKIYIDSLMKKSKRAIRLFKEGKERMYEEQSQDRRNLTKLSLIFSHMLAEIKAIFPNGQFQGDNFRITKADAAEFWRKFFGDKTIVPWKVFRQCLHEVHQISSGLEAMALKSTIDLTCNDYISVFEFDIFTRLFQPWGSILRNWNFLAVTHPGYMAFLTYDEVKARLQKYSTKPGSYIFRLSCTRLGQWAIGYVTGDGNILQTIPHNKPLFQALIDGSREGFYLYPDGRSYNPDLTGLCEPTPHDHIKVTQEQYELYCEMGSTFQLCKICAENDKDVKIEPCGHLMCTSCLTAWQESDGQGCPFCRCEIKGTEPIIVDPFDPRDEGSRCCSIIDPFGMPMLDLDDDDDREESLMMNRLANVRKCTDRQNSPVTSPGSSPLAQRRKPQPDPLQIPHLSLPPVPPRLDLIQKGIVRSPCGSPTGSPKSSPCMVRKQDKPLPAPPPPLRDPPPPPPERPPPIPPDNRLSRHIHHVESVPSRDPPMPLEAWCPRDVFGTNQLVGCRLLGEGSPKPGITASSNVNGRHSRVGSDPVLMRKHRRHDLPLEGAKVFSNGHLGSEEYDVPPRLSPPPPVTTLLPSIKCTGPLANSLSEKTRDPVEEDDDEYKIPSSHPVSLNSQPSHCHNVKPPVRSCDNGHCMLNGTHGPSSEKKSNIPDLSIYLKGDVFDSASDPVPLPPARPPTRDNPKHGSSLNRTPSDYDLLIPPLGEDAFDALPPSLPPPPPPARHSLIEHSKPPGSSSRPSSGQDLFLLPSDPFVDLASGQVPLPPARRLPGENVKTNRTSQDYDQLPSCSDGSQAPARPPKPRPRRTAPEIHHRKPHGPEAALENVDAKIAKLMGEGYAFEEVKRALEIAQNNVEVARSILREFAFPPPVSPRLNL

| IC50 [µM] | SMILES |
| --- | --- |
| < 0.1 | C[C@H]1CCCN(Cc2cc(C(F)(F)F)c3cn(-c4cccc([C@H](c5nncn5C)[C@H]5C[C@@H](O)C5)c4)c(=O)n3c2)C1 (single isomer, unassigned) [Compound 437] |
| < 0.1 | C[C@H]1CCCN(Cc2cc(C(F)(F)F)c3cn(-c4cccc([C@@H](c5nncn5C)[C@H]5C[C@H](O)C5)c4)c(=O)n3c2)C1 (single isomer, unassigned) [Compound 438] |
| 0.1 to 0.3 | CO[C@]1(C)C[C@](c2cccc(-n3cc4c(C(F)(F)F)cc(CN5CCC[C@H](C)C5)cn4c3=O)c2)(c2nncn2C)C1 (single isomer, unassigned) [Compound 439] |
| > 10 | CO[C@]1(C)C[C@@](c2cccc(-n3cc4c(C(F)(F)F)cc(CN5CCC[C@H](C)C5)cn4c3=O)c2)(c2nncn2C)C1 (single isomer, unassigned) [Compound 440] |
| > 10 | Cn1cnnc1[C@H](c1cc(-c2ccncn2)cc(-n2cc3c(C(F)(F)F)cccn3c2=O)c1)C1CCC1 (single isomer, unassigned) [Compound 441] |
| > 10 | Cn1cnnc1[C@@H](c1cc(-c2ccncn2)cc(-n2cc3c(C(F)(F)F)cccn3c2=O)c1)C1CCC1 (single isomer, unassigned) [Compound 442] |
| > 10 | Cn1cnnc1[C@H](c1cc(-c2ccnnc2)cc(-n2cc3c(C(F)(F)F)cccn3c2=O)c1)C1CCC1 (single isomer, unassigned) [Compound 443] |
| > 10 | Cn1cnnc1[C@H](c1cc(-c2ccncc2)cc(-n2cc3c(C(F)(F)F)cccn3c2=O)c1)C1CCC1 (single isomer, unassigned) [Compound 445] |
| > 10 | Cn1cnnc1[C@@H](c1cc(-c2ccncc2)cc(-n2cc3c(C(F)(F)F)cccn3c2=O)c1)C1CCC1 (single isomer, unassigned) [Compound 446] |
| > 10 | Cn1cnnc1[C@H](c1cc(-c2cncnc2)cc(-n2cc3c(C(F)(F)F)cccn3c2=O)c1)C1CCC1 (single isomer, unassigned) [Compound 447] |
| > 10 | Cn1cnnc1[C@@H](c1cc(-c2cncnc2)cc(-n2cc3c(C(F)(F)F)cccn3c2=O)c1)C1CCC1 (single isomer, unassigned) [Compound 448] |
| > 10 | Cn1cnnc1[C@H](c1cc(C#N)cc(-n2cc3c(C(F)(F)F)cccn3c2=O)c1)C1CCC1 (single isomer, unassigned) [Compound 452] |
| 0.301 to 1 | Cn1cnnc1[C@@H](c1cc(C#N)cc(-n2cc3c(C(F)(F)F)cccn3c2=O)c1)C1CCC1 (single isomer, unassigned) [Compound 453] |
| 1 to 3 | Cn1cnnc1[C@H](c1cc(-c2cnoc2)cc(-n2cc3c(C(F)(F)F)cccn3c2=O)c1)C1CCC1 (single isomer, unassigned) [Compound 454] |
| > 10 | Cn1cnnc1[C@@H](c1cc(-c2cnoc2)cc(-n2cc3c(C(F)(F)F)cccn3c2=O)c1)C1CCC1 (single isomer, unassigned) [Compound 455] |
| > 10 | Cn1cnnc1[C@H](c1cc(-c2cnsc2)cc(-n2cc3c(C(F)(F)F)cccn3c2=O)c1)C1CCC1 (single isomer, unassigned) [Compound 456] |
| > 10 | Cn1cnnc1[C@@H](c1cc(-c2cnsc2)cc(-n2cc3c(C(F)(F)F)cccn3c2=O)c1)C1CCC1 (single isomer, unassigned) [Compound 457] |
| 3 to 10 | Cn1cnnc1[C@H](c1cc(-c2ccns2)cc(-n2cc3c(C(F)(F)F)cccn3c2=O)c1)C1CCC1 (single isomer, unassigned) [Compound 458] |
| > 10 | Cn1cnnc1[C@@H](c1cc(-c2ccns2)cc(-n2cc3c(C(F)(F)F)cccn3c2=O)c1)C1CCC1 (single isomer, unassigned) [Compound 459] |
| > 10 | Cn1cnnc1[C@H](c1cc(-c2ccsn2)cc(-n2cc3c(C(F)(F)F)cccn3c2=O)c1)C1CCC1 (single isomer, unassigned) [Compound 460] |
| > 10 | Cn1cnnc1[C@@H](c1cc(-c2ccsn2)cc(-n2cc3c(C(F)(F)F)cccn3c2=O)c1)C1CCC1 (single isomer, unassigned) [Compound 461] |
| > 10 | C[C@H]1CCCN(Cc2cc(C(F)(F)F)c3cn(-c4cccc([C@H](c5nncn5C(F)F)C5CCC5)c4)c(=O)n3c2)C1 (single isomer, unassigned) [Compound 462] |
| > 10 | C[C@H]1CCCN(Cc2cc(C(F)(F)F)c3cn(-c4cccc([C@@H](c5nncn5C(F)F)C5CCC5)c4)c(=O)n3c2)C1 (single isomer, unassigned) [Compound 463] |
| < 0.1 | C[C@@H]1CN(Cc2cc(C(F)(F)F)c3cn(-c4cccc(C5(c6nncn6C)CC6(CC6)C5)c4)c(=O)n3c2)CCC1(F)F (single isomer, unassigned) [Compound 464] |
| < 0.1 | C[C@H]1CN(Cc2cc(C(F)(F)F)c3cn(-c4cccc(C5(c6nncn6C)CC6(CC6)C5)c4)c(=O)n3c2)CCC1(F)F (single isomer, unassigned) [Compound 465] |

| IC50 [µM] | SMILES |
| --- | --- |
| < 0.1 | C[C@H]1CCCN(Cc2cc(C(F)(F)F)c3cn(-c4cccc([C@H](c5nncn5C)C5(O)CCC5)c4)c(=O)n3c2)C1 (single isomer, unassigned) [Compound 474] |
| 3 to 10 | C[C@H]1CCCN(Cc2cc(C(F)(F)F)c3cn(-c4cccc([C@@H](c5nncn5C)C5(O)CCC5)c4)c(=O)n3c2)C1 (single isomer, unassigned) [Compound 475] |
| 0.301 to 1 | C[C@H]1CCCN(Cc2cc(C(F)(F)F)c3cn(-c4cc(F)cc([C@H](c5nncn5C)C5COC5)c4)c(=O)n3c2)C1 (single isomer, unassigned) [Compound 476] |
| < 0.1 | C[C@H]1CCCN(Cc2cc(C(F)(F)F)c3cn(-c4cc(F)cc([C@@H](c5nncn5C)C5COC5)c4)c(=O)n3c2)C1 (single isomer, unassigned) [Compound 477] |
| > 10 | CC(=O)NCc1cc([C@@H](c2nncn2C)C2CCC2)cc(-n2cc3c(C(F)(F)F)cccn3c2=O)c1 (single isomer, unassigned) [Compound 478] |
| 3 to 10 | CC(=O)NCc1cc([C@H](c2nncn2C)C2CCC2)cc(-n2cc3c(C(F)(F)F)cccn3c2=O)c1 (single isomer, unassigned) [Compound 479] |
| < 0.1 | Cn1cnnc1C1(c2cccc(-n3cc4c(C(F)(F)F)cc(CN5CCC[C@H](C(F)(F)F)C5)cn4c3=O)c2)CC2(CC2)C1 (single isomer, unassigned) [Compound 480] |
| < 0.1 | Cn1cnnc1C1(c2cccc(-n3cc4c(C(F)(F)F)cc(CN5CCC[C@@H](C(F)(F)F)C5)cn4c3=O)c2)CC2(CC2)C1 (single isomer, unassigned) [Compound 481] |
| < 0.1 | C[C@H](c1cc(C(F)(F)F)c2cn(-c3cccc([C@H](c4nncn4C)C4CCC4)c3)c(=O)n2c1)N1CC[C@H](F)C1 (single isomer, unassigned) [Compound 485] |
| < 0.1 | C[C@@H](c1cc(C(F)(F)F)c2cn(-c3cccc([C@H](c4nncn4C)C4CCC4)c3)c(=O)n2c1)N1CC[C@H](F)C1 (single isomer, unassigned) [Compound 486] |
| > 10 | COC[C@H]1C[C@@H]([C@@H](c2cccc(-n3cc4c(C(F)(F)F)cc(CN5CCC[C@H](C)C5)cn4c3=O)c2)c2nncn2C)C1 (single isomer, unassigned) [Compound 492] |
| > 10 | COC[C@H]1C[C@H]([C@H](c2cccc(-n3cc4c(C(F)(F)F)cc(CN5CCC[C@H](C)C5)cn4c3=O)c2)c2nncn2C)C1 (single isomer, unassigned) [Compound 493] |
| < 0.1 | COC[C@H]1C[C@H]([C@@H](c2cccc(-n3cc4c(C(F)(F)F)cc(CN5CCC[C@H](C)C5)cn4c3=O)c2)c2nncn2C)C1 (single isomer, unassigned) [Compound 494] |
| 0.1 to 0.3 | COC[C@H]1C[C@@H]([C@H](c2cccc(-n3cc4c(C(F)(F)F)cc(CN5CCC[C@H](C)C5)cn4c3=O)c2)c2nncn2C)C1 (single isomer, unassigned) [Compound 495] |
| > 10 | Cn1cnnc1[C@@H](c1cc(C#N)cc(-n2cc3c(C(F)(F)F)cc(CN4CCC5(CC5)C4)cn3c2=O)c1)C1CCC1 (single isomer, unassigned) [Compound 496] |
| < 0.1 | Cn1cnnc1[C@H](c1cc(C#N)cc(-n2cc3c(C(F)(F)F)cc(CN4CCC5(CC5)C4)cn3c2=O)c1)C1CCC1 (single isomer, unassigned) [Compound 497] |
| < 0.1 | C[C@H](c1cc(C(F)(F)F)c2cn(-c3cccc([C@H](c4nncn4C)C4CCC4)c3)c(=O)n2c1)N1CC[C@@H](F)C1 (single isomer, unassigned) [Compound 500] |
| < 0.1 | C[C@@H](c1cc(C(F)(F)F)c2cn(-c3cccc([C@H](c4nncn4C)C4CCC4)c3)c(=O)n2c1)N1CC[C@@H](F)C1 (single isomer, unassigned) [Compound 501] |
| < 0.1 | Cn1cnnc1[C@@H](c1cc(C#N)cc(-n2cc3c(C(F)(F)F)cc(CN4CCC(C)(F)CC4)cn3c2=O)c1)C1CCC1 (single isomer, unassigned) [Compound 508] |
| < 0.1 | C[C@@H]1CN(Cc2cc(C(F)(F)F)c3cn(-c4cc(C#N)cc([C@H](c5nncn5C)C5CCC5)c4)c(=O)n3c2)CCO1 (single isomer, unassigned) [Compound 509] |
| 0.301 to 1 | Cn1cnnc1[C@@H](c1cc(F)cc(-n2cc3c(C(F)(F)F)cc(CN4CCC5(CC5)C4)cn3c2=O)c1)C1CCC1 (single isomer, unassigned) [Compound 510] |
| > 10 | C[C@@H]1CN(Cc2cc(C(F)(F)F)c3cn(-c4cc(F)cc([C@H](c5nncn5C)C5CCC5)c4)c(=O)n3c2)CCO1 (single isomer, unassigned) [Compound 511] |
| > 10 | CC(=O)N(C)Cc1cc([C@@H](c2nncn2C)C2CCC2)cc(-n2cc3c(C(F)(F)F)cccn3c2=O)c1 (single isomer, unassigned) [Compound 512] |
| > 10 | CC(=O)N(C)Cc1cc([C@H](c2nncn2C)C2CCC2)cc(-n2cc3c(C(F)(F)F)cccn3c2=O)c1 (single isomer, unassigned) [Compound 513] |
